From patent US5047406A, “Substituted cyclohexanols as central nervous system agents” (Warner-Lambert Co., priority 1990, dated 1991)
Read-outs that look alike come from different tables or passages of the source.

Key:
[1] = target: T1, [^3 H]-Spiroperidol Binding (Homo sapiens, UniProt P14416); assay: Inhibition of [^3 H]-spiroperidol binding in a receptor assay
T1 construct: receptor assay described by D. Grigoriadis and P. Seeman, Journal of Neurochemistry, Volume 44, pages 1925-1935 (1985); from tissue
T1 sequence (P14416 whole entry): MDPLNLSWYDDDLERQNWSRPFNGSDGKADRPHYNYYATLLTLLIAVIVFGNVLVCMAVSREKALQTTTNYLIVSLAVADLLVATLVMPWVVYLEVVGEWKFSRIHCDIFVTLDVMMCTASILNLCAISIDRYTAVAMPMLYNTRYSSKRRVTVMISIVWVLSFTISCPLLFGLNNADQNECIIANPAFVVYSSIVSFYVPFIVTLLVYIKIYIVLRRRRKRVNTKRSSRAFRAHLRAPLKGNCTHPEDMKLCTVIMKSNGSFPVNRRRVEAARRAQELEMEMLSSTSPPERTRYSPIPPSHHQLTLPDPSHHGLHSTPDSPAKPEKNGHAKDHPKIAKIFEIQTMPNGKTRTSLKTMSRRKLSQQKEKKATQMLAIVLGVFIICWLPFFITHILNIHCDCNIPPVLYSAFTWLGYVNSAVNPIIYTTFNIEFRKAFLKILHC
Description: (§1) The above test methods are incorporated herein by reference.

[2] = system: Locomotor Activity in Mice; assay: Inhibition of locomotor activity in mice; format: in vivo; details: for ED50: Mus musculus, ip; for Inhibition of Locomotor Activity in Mice ED50: IP
Description: as §1

[3] = read-out: Inhibition of [^3 H]-Spiroperidol Binding IC50

| SMILES | IC50 [1, 3] [µM] | ED50 [2] [mg/kg] | Inhibition of Locomotor Activity in Mice ED50 [2] [mg/kg] | IC50 ([1]; Inhibition of [^3 H]-Spiroperidol Binding IC50) [µM] |
| --- | --- | --- | --- | --- |
| OC1(c2ccccn2)CCC(N2CCN(c3ccccn3)CC2)CC1 (stereo not drawn) [Example 20, trans-1-(2-Pyridinyl)-4-[4-(2-pyridinyl)-1-piperazinyl]cyclohexanol] |  |  | > 30 |  |
| OC1(c2ccccn2)CCC(N2CCN(c3ncccn3)CC2)CC1 (stereo not drawn) [Example 19, cis-1-(2-Pyridinyl)-4-[4-(2-pyrimidinyl)-1-piperazinyl]cyclohexanol] |  |  | 13.0 |  |
| OC1(c2cccnc2)CCC(N2CC=C(c3ccccc3)CC2)CC1 (stereo not drawn) [Example 29, trans-4-(3,6-Dihydro-4-phenyl-1(2H)-pyridinyl)-1-(3-pyridinyl)cyclohexanol] |  |  | 25.6 |  |
| O=C(N[C@H]1CC[C@@H](CCN2CC=C(c3ccccc3)CC2)CC1)c1ccccc1 [Example 69, cis N-[4-[2-(3,6-Dihydro-4-phenyl-1(2H)-pyridinyl)ethyl]cyclohexyl]benzamide] |  | 2.1 |  |  |
| O=C(N[C@H]1CC[C@H](N2CC=C(c3ccccc3)CC2)CC1)C1CCCCC1 [Example 50, trans N-[4-(3,6-Dihydro-4-phenyl-1(2H)-pyridinyl)cyclohexyl]cyclohexanecarboxamide] | 1.6 | 1.1 |  |  |
| OC1(c2ccccn2)CCC(N2CC=C(c3ccccc3)CC2)CC1 (centres unmarked) [Example 28, 4-(3,6-Dihydro-4-phenyl-1(2H)-pyridinyl)-1-(2-pyridinyl)cyclohexanol] |  | 1.8 |  |  |
| OC1(c2cccnc2)CCC(N2CC=C(c3ccccc3)CC2)CC1 (stereo not drawn) [Example 30, cis-4-(3,6-Dihydro-4-phenyl-1(2H)-pyridinyl)-1-(3-pyridinyl)cyclohexanol] | 1.25 |  | 1.3 |  |
| OC1(c2cccs2)CCC(CN2CCN(c3ccccn3)CC2)CC1 (stereo not drawn) [Example 16, trans-4-[[4-(2-Pyridinyl)-1-piperazinyl]methyl]-1-(2-thienyl)cyclohexanol] |  | 4.3 |  |  |
| O=C(N[C@H]1CC[C@@H](CCN2CC=C(c3ccccc3)CC2)CC1)c1cccs1 [Example 70, cis N-[4-[2-(3,6-Dihydro-4-phenyl-1(2H)-pyridinyl)ethyl]cyclohexyl]-2-thiophenecarboxamide] | 0.28 |  |  |  |
| OC1(c2cccs2)CCC(CCN2CC=C(c3ccccc3)CC2)CC1 (stereo not drawn) [Example 13, cis-4-[2-(3,6-Dihydro-4-phenyl-1(2H)-pyridinyl)ethyl]-1-(2-thienyl)cyclohexanol] |  | 2 |  | 0.051 |
| OC1(c2ccccn2)CCC(N2CCN(c3ncccn3)CC2)CC1 (stereo not drawn) [Example 18, trans-1-(2-Pyridinyl)-4-[4-(2-pyrimidinyl)-1-piperazinyl]cyclohexanol] |  |  | > 30 |  |
| OC1(c2cccs2)CCC(N2CCN(c3ccccn3)CC2)CC1 (centres unmarked) [Example 24, 4-[4-(2-Pyridinyl)-1-piperazinyl]-1-(2-thienyl)cyclohexanol] |  | > 30 |  |  |

Further lines, with some results ahead:

| IC50 [1, 3] [µM] | SMILES | ED50 [2] [mg/kg] | Inhibition of Locomotor Activity in Mice ED50 [2] [mg/kg] | IC50 ([1]; Inhibition of [^3 H]-Spiroperidol Binding IC50) [µM] |
| --- | --- | --- | --- | --- |
| 2.52 | O=C(N[C@H]1CC[C@H](N2CCN(c3ccccn3)CC2)CC1)c1cccs1 [Example 44, trans N-[4-[4-(2-Pyridinyl)-1-piperazinyl]cyclohexyl]-2-thiophenecarboxamide] | 0.29 |  |  |
| 2.78 | OC1(c2ccccn2)CCC(N2CCN(c3ccccn3)CC2)CC1 (stereo not drawn) [Example 21, cis-1-(2-Pyridinyl)-4-[4-(2-pyridinyl)-1-piperazinyl]cyclohexanol] |  | 2.3 |  |
| 0.53 | COc1ccccc1C(=O)N[C@H]1CC[C@H](N2CCN(c3ccccn3)CC2)CC1 [Example 41, trans N-[4-[4-(2-Pyridinyl)-1-piperazinyl]cyclohexyl]-2-methoxybenzamide] | 1.9 |  |  |
| 1.55 | OC1(c2nccs2)CCC(CCN2CCN(c3ccccn3)CC2)CC1 (centres unmarked) [Example 9, 4-[2-[4-(2-Pyridinyl)-1-piperazinyl]ethyl]-1-(2-thiazolyl)cyclohexanol] | 1 |  |  |
| 0.62 | O=C(N[C@H]1CC[C@H](CCN2CCN(c3ccccn3)CC2)CC1)c1ccc(Cl)cc1 [Example 57, trans 4-Chloro-N-[4-[2-[4-(2-pyridinyl)-1-piperazinyl]ethyl]cyclohexyl]benzamide] | 0.51 |  |  |
| 12.5 | OC1(c2cccnc2)CCC(N2CCN(c3ccccn3)CC2)CC1 (stereo not drawn) [Example 22, trans-1-(3-Pyridinyl)-4-[4-(2-pyridinyl)-1-piperazinyl]cyclohexanol] |  | 30 |  |
| 0.816 | OC1(c2ccc(Cl)cc2)CCC(N2CCN(c3ccccn3)CC2)CC1 (stereo not drawn) [Example 1a, cis-1-(4-Chlorophenyl)-4-[4-(2-pyridinyl)-1-piperazinyl]cyclohexanol] |  | 0.86 |  |
| 0.847 | OC1(c2cccnc2)CCC(CCN2CCN(c3ccccn3)CC2)CC1 (centres unmarked) [Example 10, 1-(3-Pyridinyl)-4-[2-[4-(2-pyridinyl)-1-piperazinyl]ethyl]cyclohexanol] | 0.37 |  |  |
| 0.83 | Cc1ccc(C(=O)N[C@H]2CC[C@@H](CCN3CCN(c4ccccn4)CC3)CC2)cc1 [Example 55, cis 4-Methyl-N-[4-[2-[4-(2-pyridinyl)-1-piperazinyl]ethyl]cyclohexyl]benzamide] |  |  |  |
| 1.62 | O=C(N[C@H]1CC[C@@H](CCN2CCN(c3ccccn3)CC2)CC1)c1ccc(Cl)cc1 [Example 56, cis 4-Chloro-N-[4-[2-[4-(2-pyridinyl)-1-piperazinyl]ethyl]cyclohexyl]benzamide] | 6.3 |  |  |
| 0.67 | COc1ccc(C2(O)CCC(N3CCN(c4ccccn4)CC3)CC2)cc1 (centres unmarked) [Example 26, 1-(4-Methoxyphenyl)-4-[4-(2-pyridinyl)-1-piperazinyl]cyclohexanol] | 0.3 |  |  |
| 3.9 | OC1(c2cccs2)CCC(CN2CCN(c3ccccn3)CC2)CC1 (stereo not drawn) [Example 17, cis-4-[[4-(2-Pyridinyl)-1-piperazinyl]methyl]-1-(2-thienyl)cyclohexanol] |  | 5.2 |  |
| 1.05 | OC1(c2ccccn2)CCC(CCN2CCN(c3ccccn3)CC2)CC1 (centres unmarked) [Example 6, 1-(2-Pyridinyl)-4-[2-[4-(2-pyridinyl)-1-piperazinyl]ethyl]cyclohexanol] | 0.34 |  |  |
| 0.333 | OC1(c2ccc(Cl)cc2)CCC(N2CCN(c3ccccn3)CC2)CC1 (stereo not drawn) [Example 1, trans-1-(4-Chlorophenyl)-4-[4-(2-pyridinyl)-1-piperazinyl]cyclohexanol] |  | 2.3 |  |
| 1.16 | OC1(c2cccnc2)CCC(N2CCN(c3ccccn3)CC2)CC1 (stereo not drawn) [Example 23, cis-1-(3-Pyridinyl)-4-[4-(2-pyridinyl)-1-piperazinyl]cyclohexanol] |  | 1.6 |  |
| 7.79 | O=C(N[C@H]1CC[C@H](N2CCN(c3ccccn3)CC2)CC1)c1ccc(Cl)cc1 [Example 43, trans 4-Chloro-N-[4-[4-(2-pyridinyl)-1-piperazinyl]cyclohexyl]benzamide] | 0.78 |  |  |
| 1.66 | OC1(c2ccccc2)CCC(N2CCN(c3ccccn3)CC2)CC1 (centres unmarked) [Example 27, 1-Phenyl-4-[4-(2-pyridinyl)-1-piperazinyl]cyclohexanol] | 0.83 |  |  |
| 2.7 | OC1(c2ccsc2)CCC(N2CCN(c3ccccn3)CC2)CC1 (centres unmarked) [Example 25, 4-[4-(2-Pyridinyl)-1-piperazinyl]-1-(3-thienyl)cyclohexanol] | 2.4 |  |  |
